In publication PMC4197335, “Cancer-Selective Targeting of the NF-κB Survival Pathway with GADD45β/MKK7 Inhibitors” (Cancer Cell, 2014):

Key:
[1] = tested on: mouse lymph node (LN) cells; test: cells; settings: Mus musculus, 48 h, read-out: IC50 (normal; lymph node cells)
Source text: (§1) Additional details are provided in Supplemental Experimental Procedures.
(§2) automated system (Becton Dick inson) and analyzed with FlowJo.

[2] = tested on: CD138+ cells from WM patients; test: cells; settings: Homo sapiens, 48 h, read-out: IC50 (WM; PCs (n= 2))
Source text: as §1, §2

[3] = tested on: CD138+ cells from MM patients; test: cells; settings: Homo sapiens, 48 h, read-out: IC50 (MM; PCs (n = 8))
Source text: as §1, §2

mouse splenocytes = test: cells; settings: Mus musculus, Splenocyte, 48 h, read-out: IC50 (normal; splenocytes)
Source text: as §1, §2

[4] = tested on: human mesenchymal stem cells (MSCs); test: cells; settings: Homo sapiens, Mesenchymal stem cells, 48 h, read-out: IC50 (normal; MCSs)
Source text: as §1, §2

human PBMCs = test: cells; settings: Homo sapiens, PBMC, 48 h, read-out: IC50 (normal; PBMCs)
Source text: as §1, §2

human BMSCs = test: cells; settings: Homo sapiens, BMSC, 48 h, read-out: IC50 (normal; BMSCs)
Source text: as §1, §2

U266 MM cells = test: cells; settings: Homo sapiens, U-266, 48 h
KMS-12 MM cells = test: [3H]thymidine incorporation; assay type: cell-based; settings: Homo sapiens, single agent at 48 hr
Procedure: as §1
Cell Proliferation, Cell Death, and Apoptosis Assays
W allac Trilux Microbeta 3 β -counter (Perk inElmer). Values were expressed as the percentage of the […]
respective untreated cultures. […]
splitting them as necessary during the assays. […]
previously (Riccardi and Nicoletti, 2006).
Cells were then f ixed in 70% ice- cold ethanol for 16 hr, washed in PBS, and treated with ribonuclease A (50 μg/mL) f or 30 min at room temperature. Samples were f inally stained with PI (50 µg/mL) in 0.1% sodium citrate buffer for 2 to 4 hr at 4°C in the dark , and data were acquired using a FACSCalibur automated system (Becton Dick inson) and analyzed with FlowJo.
The viability of primary CD138 + cells f rom patients was assessed using trypan blue exclusion assays (Mauro et al., 2011; Arnold et al., 2008), perf ormed as described above. Cells were seeded […]
Cell viability in the treated cultures was expressed as the percentage of cell survival relative to the survival observed in the respective untreated cultures, represented as 100%. […]
The activities of DTP3 and bortezomib in the U266 and KMS-12 myeloma cell lines, both as single agents and in combination, were determined using [3H]thymidine incorporation assays, performed as described above in “Cell Prolif eration, Cell Death, and Apoptosis Assays”. […]

With `CC(C)C[C@H](NC(=O)[C@H](Cc1ccccc1)NC(=O)c1cnccn1)B(O)O` [Bortezomib, reference compound] the IC50 [1] was 91.1 nM, the IC50 [2] was 3.38 ± 2 nM and the IC50 [3] was 8.7 ± 2.1 nM. The IC50 (mouse splenocytes) was 80 nM, the IC50 [4] was 79.4 nM and the IC50 (human PBMCs) was 63.1 nM. For the same compound, the IC50 (human BMSCs) was 80 nM, the IC50 (U266 MM cells) was 6 nM and the IC50 (KMS-12 MM cells) was 6 nM.
